For data set [1], the system named is TNFα and IFNα in peripheral plasma. Put plainly: Cytokine induction after three consecutive daily s.c. treatments (Figure 6A, C). In kind it is in vivo, mice. The note with it: in words; for type I Interferon concentrations in plasma after the second treatment: repeated daily s.c. treatment; for secretion of TNFα after repeated treatments in comparison with IMQ and RSQ: three daily s.c. treatments. The protocol: Cytokine concentrations in samples were quantified either by ELISA (hTNFα, R&D Systems; hIFNα, Mabtech) or cytometric bead arrays (CBA, LegendPlex mouse anti-virus response panel, BioLegend) according to the manufacturer’s instructions. CBAs were acquired on a ZE5 Cell Analyzer (Bio-Rad) and analyzed using the LegendPlex Software Suite (Qognit/BioLegend). Absorbance of ELISA-samples was quantified using a Versamax microplate reader (Molecular Devices).
(§1) Formulation. Test compounds were prepared for application in either 1% Tween 80, 9% PEG400 in ultrapure water (Biowest) (i.v., i.p., p.o. application) or 5 mM citric acid in 0.9% saline (Braun) (subcutaneous application). If compounds were administered subcutaneously, injections were carried out into the neck crease.
(§2) Collection of Samples. Mice were bled from the tail vein at various timepoints. Heparin (Sigma) or K2-EDTA (Sigma) was added to blood samples to a final […] concentration of 10-15 Unit or 5 mM. Plasma was generated by centrifugation at 6800xg for 8 min at 4°C and stored at -80°C until analyzed by ELISA or CBA. Animals were sacrificed after the indicated time points by CO2 inhalation. Heart blood and organs for compound quantification by HPLC-MS/MS were collected post mortem and stored at –20°C until extracted as described above.
(§3) Dotted lines indicate the time of repeated compound applications. (A) Cytokine levels in pooled tail plasma of mice from individual treatment groups (n=3 per pool and time point), error bars represent range of two replicate measurements. (B) Peripheral blood was collected from the tail vein before, 15, 30 60, 120, 240, 360 and 480 min after s.c. treatment. Compound concentration in peripheral plasma was analyzed by HPLC-MS/MS, data presented as mean ± SD.

Data set [2] is described as follows: Compound concentrations in organs and plasma after three consecutive daily s.c. treatments (Figure 6B, S7). The data set is classed as in vivo, mice. The note with it: for compound plasma level at peak: s.c.; for concentration at 4 h / concentration at 28 h / concentration at 52 h: mouse, liver, sc, read-out: concentration in liver; for concentration at 4 h / concentration at 28 h / concentration at 52 h / levels in brain tissue / concentration in liver: repeated daily s.c. treatment; for levels in brain tissue: in words. As to the method:
All samples were extracted with 3 or 6 volumes acetonitrile containing terbuthylazine as an internal standard (ACN) relative to either sample weight or volume. Liquid samples (plasma, culture medium, cell suspensions in stability experiments) were diluted in either 3 (culture medium, cell suspensions) or 6 (plasma) volumes ACN, pellet and blood samples were extracted by addition of ACN followed by sonication for 5 min. Organ samples were digested with 0.5 µg/mg Proteinase K (Genaxxon) for 1 h at 50°C before being homogenized using a Fastprep FP-24 5G instrument (MP-Biomedicals). Homogenates were diluted with 6 volumes ACN and homogenized again. All extracts were cleared by centrifugation at ~20.000xg for 10 min at 4°C.
Quantification of analytes was performed on an Agilent 1260/1290 Infinity system fitted with an Agilent C18 Poroshell 120 column (4.6 x 50 mm, 2.7 µm) coupled to a triple quadrupole Sciex API 4000 MS/MS detector. The mobile phase was composed of water containing 0.1% formic acid (eluent A) and acetonitrile containing 0.1% formic acid (eluent B). Gradient used was: 5% B for 0.5 min, to 100% B in 4.5 min, 100% B for 2 min, to 5% B in 0.5 min, 5% for 2.5 min. MS detection parameters are listed in SI Table S1 .
as §1, §2, §3
Samples were collected 4 h, 28 h and 52 h after s.c. treatment. Skin samples were sampled
at time points 4 h and 52 h. Compound concentrations were analyzed by HPLC-MS/MS, data

Data set [3] in a line: Stability in whole blood, U937 and RPMI. The data set is classed as in vitro ADME, human. The following applies: 1 µM, 37°C, over 24 h; in words. As to the method:
Human blood products used in the in vitro assays (for cell stimulation and stability) were obtained from the center for transfusion medicine in Tübingen, Germany (Zentrum für Klinische Transfusionmedizin Tübingen GmbH, (ethical approval number ZKT-FoPro202106-2305-01). Test compounds (1 µM) in either culture medium (RPMI-1640 medium containing 10% fetal bovine serum, 60 mg/l Penicillin G sodium salt and 100 mg/l Streptomycin sulfate (all Biowest)), human blood (diluted 1:1 with culture medium) or a suspension of 5x10^6 cells/ml U937 in culture medium were incubated at 37°C, 450 rpm on a shaking incubator. At the indicated time points 50 µL of blood, cell suspension or medium were collected and prepared for HPLC-MS/MS-Analysis as detailed below.
All samples were extracted with 3 or 6 volumes acetonitrile containing terbuthylazine as an internal standard (ACN) relative to either sample weight or volume. Liquid samples (plasma, culture medium, cell suspensions in stability experiments) were diluted in either 3 (culture medium, cell suspensions) or 6 (plasma) volumes ACN, pellet and blood samples were extracted by addition of ACN followed by sonication for 5 min. […]
Quantification of analytes was performed on an Agilent 1260/1290 Infinity system fitted with an Agilent C18 Poroshell 120 column (4.6 x 50 mm, 2.7 µm) coupled to a triple quadrupole Sciex API 4000 MS/MS detector. […]

The mark [4] stands for this setting: day 1, 60 min after application.
Setting [5] is: day 2, 60 min after application.
Setting [6] is: day 3, 60 min after application.

Each structure is given as a SMILES string. A value given as a limit tells only on which side of the number the result lay.

This note sets out measurements from PMC10319141, “Imidazoquinolines with improved pharmacokinetic properties induce a high IFNα to TNFα ratio in vitro and in vivo” (Frontiers in Immunology, 2023).

For the compound `CCCCc1nc2c(N)nc3ccccc3c2n1CCC1CCNCC1` [A1], in data set [1], the “type I Interferon concentrations in plasma after the second treatment” value is “at the limit of detection”. For the same compound, the “secretion of TNFα after repeated treatments in comparison with IMQ and RSQ” value in data set [1] was “remained low”. Further, the results for the “compound plasma level at peak” value in data set [2] (setting [4]), in data set [2] (setting [5]) and in data set [2] (setting [6]) were 171 nM, 85 nM and 66 nM, respectively. In data set [2] (after 4 h), the concentration at 4 h was determined as 63 nM. The concentration at 28 h in data set [2] (after 28 h) stood at 82 nM. Further, the concentration at 52 h in data set [2] (after 52 h) amounted to 0.094 µM. Besides, in data set [2], the “levels in brain tissue” value was “baseline or close to baseline levels”.
On to `CCOCc1nc2c(N)nc3ccccc3c2n1CC(C)(C)O` [RSQ, Resiquimod, reference compound], for which the concentration in liver entry in data set [2] (after 4 h), in data set [2] (after 28 h) and in data set [2] (after 52 h) was “< LLOQ” each time. Besides, the “compound plasma level at peak” value in data set [2] (setting [4]), in data set [2] (setting [5]) and in data set [2] (setting [6]) was “< LLOQ” throughout. The “levels in brain tissue” value in data set [2] is “baseline or close to baseline levels”.
As to `CCCCc1nc2c(N)nc3ccccc3c2n1CC1CCN(C(=O)CN(C)CC(=O)N(C)[C@H]2C[C@@H](C)O[C@@H](O[C@@H]3[C@@H](C)[C@H](O[C@H]4C[C@@](C)(OC)[C@@H](O)[C@H](C)O4)[C@@H](C)C(=O)O[C@H](CC)[C@@](C)(O)[C@H](O)[C@@H](C)N(C)C[C@H](C)C[C@@]3(C)O)[C@@H]2O)CC1` [A2-mac], the “stability in whole blood and cell based (U937) assays” value in data set [3] is recorded as “stable”.
Turning to `CCCCc1nc2c(N)nc3ccccc3c2n1CCC1CCN(C(=O)CN(C)CC(=O)N(C)C2CC(C)OC(OC3C(C)C(OC4CC(C)(OC)C(O)C(C)O4)C(C)C(=O)OC(CC)C(C)(O)C(O)C(C)N(C)CC(C)CC3(C)O)C2O)CC1` (stereo not drawn) [A1-mac], in data set [1], the “type I Interferon concentrations in plasma after the second treatment” value is listed as “at the limit of detection”. In addition, the “secretion of TNFα after repeated treatments in comparison with IMQ and RSQ” value in data set [1] is “remained low”. Moreover, in data set [3], the “stability in whole blood and cell based (U937) assays” value was “stable”. Further, the “compound plasma level at peak” value is 755 nM in data set [2] (setting [4]), 585 nM in data set [2] (setting [5]) and 639 nM in data set [2] (setting [6]). Further, in data set [2] (after 4 h), the concentration at 4 h worked out at 2620 nM. Moreover, the concentration at 28 h in data set [2] (after 28 h) stood at 4460 nM. For the same compound, the concentration at 52 h in data set [2] (after 52 h) was 6.35 µM. Moreover, in data set [2], the “levels in brain tissue” value is reported as “baseline or close to baseline levels”.
